# Laboratory results from US9255103B2, “Substituted pyrazolo[1,5-a]pyrazines as mGluR5 receptor modulators” (Vanderbilt University, priority 2010, dated 2016).
# Where two headings read alike, the source gives them in different places.
# Legend:
# human mGluR5a receptor = human mGluR5a receptor (Homo sapiens, UniProt P41594); assay: Cell-based functional Ca2+ mobilization assay (FDSS), potentiation of glutamate EC20 response in H10H cell line; details: for Emax: percent of maximal glutamate response, human mGluR5 HEK cells; for pEC50 / EC50: HEK cells transfected with human mGluR5 (H10H), presence of glutamate EC20; for pEC50: concentration in mol/L; for EC50: read-out: EC50
# Protocol: Human embryonic kidney (HEK) cells transfected with rat mGluR5 were plated in clear bottom assay plates for assay in a Functional Drug Screening System (FDSS). In the alternative assay, HEK cells transfected with human mGluR5 (H10H cell line) were plated for assay in the FDSS. […] The cells were loaded with a Ca^2+-sensitive fluorescent dye (e.g., Fluo-4), and the plates were washed and placed in the FDSS instrument. After establishment of a fluorescence baseline for twelve seconds, the compounds of the present invention were added to the cells, and the response in cells was measured. Alternatively, in various further aspects, after establishment of a fluorescence baseline for about three seconds, the compounds of the present invention were added to the cells, and the response in cells was measured. Five minutes later, an mGluR5 agonist (e.g., glutamate, 3,5-dihydroxyphenylglycine, or quisqualate) was added to the cells, and the response of the cells was measured.
# The above described assay operated in two modes. In the first mode, a range of concentrations of the present compounds were added to cells, followed by a single fixed concentration of agonist. If a compound acted as a potentiator, an EC50 value for potentiation and a maximum extent of potentiation by the compound at this concentration of agonist was determined by non-linear curve fitting. In the second mode, several fixed concentrations of the present compounds were added to various wells on a plate, followed by a range of concentrations of agonist for each concentration of present compound; the EC50 values for the agonist at each concentration of compound were determined by non-linear curve fitting. A decrease in the EC50 value of the agonist with increasing concentrations of the present compounds (a leftward shift of the agonist concentration-response curve) is an indication of the degree of mGluR5 potentiation at a given concentration of the present compound. An increase in the EC50 value of the agonist with increasing concentrations of the present compounds (a rightward shift of the agonist concentration-response curve) is an indication of the degree of mGluR5 antagonism at a given concentration of the present compound. The second mode also indicates whether the present compounds also affect the maximum response to mGluR5 to agonists.
# The mGluR5 activity was determined using the metabotropic glutamate receptor activity assays in human embryonic kidney cells as described herein, wherein the human embryonic kidney cells were transfected with human mGluR5. The compounds in Table 1 were synthesized with methods identical or analogous to those shown herein. The requisite starting materials were commercially available, described in the literature, or readily synthesized by one skilled in the art of organic synthesis.
# Human mGluR5a cDNA in pCMV6-XL6 mammalian expression plasmid was purchased from OriGene Technologies, Inc. (catalogue number SC326357) and subcloned into pcDNA3.1(−). Human embryonic kidney (HEK)293A cells were then transfected with human mGluR5a pcDNA3.1(−) using LipofectAmine2000 (Invitrogen) and monoclones were selected and tested for functional response using a Ca^2+ mobilization assay. Monoclones were named for the species (“H” for human) plus the location on the plate (e.g. “10H”).
# HEK cells transfected with the human mGluR5a receptor (H10H cell line) were plated at 15,000 cells/well in clear-bottomed poly-D-lysine-coated assay plates (BD Falcon) in glutamate-glutamine-free growth medium and incubated overnight at 37° C. and 5% CO2. The following day, the growth medium was removed and the cells were washed with assay buffer containing 1× Hank's balanced salt solution (Invitrogen, Carlsbad, Calif.), 20 mM HEPES, 2.5 mM probenecid, pH 7.4 and left with 20 μL of this reagent.
# [1] = HEK293, maximum average response at a single concentration, read-out: Emax
# [2] = maximum average response at a single concentration
# human mGluR5a receptor, sequence (P41594 21-1180 isoform P41594-2 limits assumed): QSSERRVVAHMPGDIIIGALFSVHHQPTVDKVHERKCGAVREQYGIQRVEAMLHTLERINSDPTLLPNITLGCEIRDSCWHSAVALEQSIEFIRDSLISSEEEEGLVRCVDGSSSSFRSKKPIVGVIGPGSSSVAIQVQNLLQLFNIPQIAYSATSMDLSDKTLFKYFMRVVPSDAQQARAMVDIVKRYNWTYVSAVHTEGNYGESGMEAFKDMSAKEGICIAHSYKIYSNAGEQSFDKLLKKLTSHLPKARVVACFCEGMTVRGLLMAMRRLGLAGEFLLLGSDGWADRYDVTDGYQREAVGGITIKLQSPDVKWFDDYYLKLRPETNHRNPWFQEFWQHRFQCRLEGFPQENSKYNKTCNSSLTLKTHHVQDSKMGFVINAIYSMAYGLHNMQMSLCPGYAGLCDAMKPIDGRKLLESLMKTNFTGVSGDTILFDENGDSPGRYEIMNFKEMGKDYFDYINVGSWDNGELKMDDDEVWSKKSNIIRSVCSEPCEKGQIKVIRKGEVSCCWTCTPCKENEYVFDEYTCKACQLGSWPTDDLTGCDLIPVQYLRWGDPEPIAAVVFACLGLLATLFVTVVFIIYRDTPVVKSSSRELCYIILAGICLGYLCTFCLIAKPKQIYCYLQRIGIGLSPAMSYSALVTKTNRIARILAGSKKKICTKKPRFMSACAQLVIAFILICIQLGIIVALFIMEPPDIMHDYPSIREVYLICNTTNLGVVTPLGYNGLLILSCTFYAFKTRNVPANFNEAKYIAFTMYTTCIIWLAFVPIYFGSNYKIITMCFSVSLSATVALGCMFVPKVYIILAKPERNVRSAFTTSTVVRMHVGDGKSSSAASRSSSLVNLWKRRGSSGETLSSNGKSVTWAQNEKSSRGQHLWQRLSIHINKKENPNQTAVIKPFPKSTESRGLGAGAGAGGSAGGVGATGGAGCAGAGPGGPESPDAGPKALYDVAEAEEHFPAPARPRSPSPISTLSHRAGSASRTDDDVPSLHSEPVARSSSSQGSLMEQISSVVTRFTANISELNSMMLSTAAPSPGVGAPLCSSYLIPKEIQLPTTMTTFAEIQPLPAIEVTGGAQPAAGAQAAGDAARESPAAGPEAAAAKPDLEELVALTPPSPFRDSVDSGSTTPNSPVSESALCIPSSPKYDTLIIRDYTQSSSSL
Emax (human mGluR5a receptor; [1]) [%],pEC50 (human mGluR5a receptor),EC50 (human mGluR5a receptor) [nM],melting point [°C],Emax (human mGluR5a receptor; [2]) [%],Compound
81,5.78,1660,133.3,–,N#Cc1cc(C(=O)N2CCn3nc(COc4ccccc4)cc3C2)ccc1F [Compound 28]
77,5.89,1280,> 300,–,O=C(c1ncc(F)cc1F)N1CCn2nc(COc3cccc(F)c3)cc2C1 [Compound 21]
59,6.48,331,101.5,–,N#Cc1cccc(C(=O)N2CCn3nc(COc4cccc(F)c4)cc3C2)c1 [Compound 30]
23,5.53,2950,136,–,O=C(c1ccc(F)cc1)N1CCn2nc(COc3ccccc3)c(Cl)c2C1 [Compound 55]
76,6.70,201,–,–,O=C(c1ccccc1F)N1CCn2nc(COc3ccccc3)cc2C1 [Compound 2]
75,6.23,587,112.7,–,O=C(c1ccc(F)c(F)c1)N1CCn2nc(COc3cccc(F)c3)cc2C1 [Compound 13]
12,<4.52,> 30200,–,–,Cc1ncc(C(=O)N2CCn3nc(COc4cccc(F)c4)cc3C2)cn1 [Compound 37]
66,6.77,169,–,–,O=C(c1cccc(F)c1)N1CCn2nc(COc3ccccc3)cc2C1 [Compound 3]
65,5.53,2950,114,–,O=C(c1ncccc1F)N1CCn2nc(COc3cccc(F)c3)cc2C1 [Compound 20]
58,6.53,295,–,–,O=C(c1ccc(F)cc1)N1CCn2nc(COc3ccc(F)cc3)cc2C1 [Compound 38]
62,6.26,550,–,–,O=C(c1ccc(F)cc1)N1CCn2nc(COc3ccccc3)c(F)c2C1 [Compound 56]
–,6.31,490,–,67,CC1Cn2nc(COc3ccccc3)cc2CN1C(=O)c1cccc(F)c1 (centres unmarked) [Compound 48]
78,6.68,208,–,–,O=C(c1ccc(F)cc1F)N1CCn2nc(COc3ccccc3)cc2C1 [Compound 8]
51,5.34,4570,–,–,Nc1c(COc2ccccc2)nn2c1CN(C(=O)c1ccc(F)cc1)CC2 [Compound 58]
69,6.86,138,–,–,CC1CN(C(=O)c2cccc(F)c2)Cc2cc(COc3ccccc3)nn21 (centres unmarked) [Compound 42]
–,<5.00,> 10000,–,69,CC1Cn2nc(COc3ccccc3)cc2CN1C(=O)c1cc(F)cc(C#N)c1 (centres unmarked) [Compound 52]
60,5.52,3020,–,–,O=C(c1cnccn1)N1CCn2nc(COc3cccc(F)c3)cc2C1 [Compound 34]
34,5.53,2910,–,–,Cc1ncccc1C(=O)N1CCn2nc(COc3cccc(F)c3)cc2C1 [Compound 22]
60,6.34,457,–,–,N#Cc1cccc(C(=O)N2CCn3nc(COc4ccccc4)cc3C2)c1 [Compound 25]
–,6.79,162,–,74,CC1CN(C(=O)c2ccc(F)cc2)Cc2cc(COc3ccccc3)nn21 (centres unmarked) [Compound 41]

# More lines, now with the values behind:
Compound,Emax (human mGluR5a receptor; [1]) [%],pEC50 (human mGluR5a receptor),EC50 (human mGluR5a receptor) [nM],melting point [°C],Emax (human mGluR5a receptor; [2]) [%]
O=C(c1ccccc1)N1CCn2nc(COc3cccc(F)c3)cc2C1 [Compound 9],72,6.59,257,159.2,–
CC1Cn2nc(COc3ccccc3)cc2CN1C(=O)c1cccc(C#N)c1 (centres unmarked) [Compound 50],–,6.36,437,53.9,59
O=C(c1ccnnc1)N1CCn2nc(COc3cccc(F)c3)cc2C1 [Compound 36],39,<5.00,> 10000,282.6,–
CC1Cn2nc(COc3ccccc3)cc2CN1C(=O)c1cccc(F)c1 (centres unmarked) [Compound 47],52,5.97,1070,–,–
Cc1cccc(C(=O)N2CCn3nc(COc4cccc(F)c4)cc3C2)n1 [Compound 24],58,5.51,3030,88,–
CC1CN(C(=O)c2ccc(F)cc2)Cc2cc(COc3ccccc3)nn21 (centres unmarked) [Compound 40],58,6.15,708,–,–
CC(Oc1ccccc1)c1cc2n(n1)CCN(C(=O)c1ccc(F)cc1)C2 (racemic) [Compound 54],25,–,> 30200,–,–
O=C(c1cccc(F)c1F)N1CCn2nc(COc3ccccc3)cc2C1 [Compound 7],58,6.39,406,–,–
COc1c(COc2ccccc2)nn2c1CN(C(=O)c1ccc(F)cc1)CC2 [Compound 59],15,5.74,1820,–,–
CC1Cn2nc(COc3ccccc3)cc2CN1C(=O)c1cc(F)cc(C#N)c1 (centres unmarked) [Compound 51],56,6.12,759,–,–
CC1CN(C(=O)c2cc(F)cc(C#N)c2)Cc2cc(COc3ccccc3)nn21 (centres unmarked) [Compound 44],66,6.16,692,–,–
O=C(c1cccc(F)c1)N1CCn2nc(COc3cccc(F)c3)cc2C1 [Compound 10],69,6.57,269,–,–
CC1(C)CN(C(=O)c2ccc(F)cc2)Cc2cc(COc3ccccc3)nn21 [Compound 18],66,6.59,256,–,–
O=C(c1cc(F)cc(F)c1)N1CCn2nc(COc3ccccc3)cc2C1 [Compound 5],50,7.10,79.6,–,–
CC1Cn2nc(COc3ccccc3)cc2CN1C(=O)c1ccc(F)cc1 (racemic) [Compound 17],81,–,673,–,–
